Data taken from patent publication US7052909B1, “Method for activating NKT cells using PIMs” (priority 1999, dated 2006).

Legend:
C57BL/6 mice = experiment: Formation of lesions of the granulomatous type after subcutaneous injection in mice; type: in vivo, mouse; conditions: s.c., adsorbed onto Alu-Gel-S
NKT cells = experiment: NKT-cell recruitment at the site of injection, Vα14-Jα281 mRNA by RT-PCR and Immunoscope; type: in vivo, mouse; conditions: C57BL/6 mice, s.c., adsorbed on Alu-Gel-S, day 7, RT-PCR, compared with Alu-Gel-S alone

CC(=O)N[C@H]1C(O)O[C@H](CO)[C@@H](O)[C@@H]1O[C@H](C)C(=O)N[C@@H](C)C(=O)N[C@H](CCC(=O)O)C(N)=O (mixture of isomers) [MDP, muramyl-dipeptide]
cell infiltrate at site of injection (C57BL/6 mice): produced a cellular infiltrate
activity of NKT-cell recruitment (Vα14-Jα281 mRNA) (NKT cells): without increasing the Vα14-Jα281 mRNA
